Like-named read-outs stand apart in the source and are kept apart here.
Tests used:
CDK4/cyclin D1 = CDK4/cyclin D1 (Homo sapiens, UniProt P11802); experiment: Kinase assay CDK4/cyclin D1; type: biochemical
Protocol: The compounds from the examples above were investigated for their ability to inhibit the enzymatic activity of various protein kinases. This was achieved by measurement of incorporation of radioactive phosphate from ATP into appropriate polypeptide substrates. Recombinant protein kinases and kinase complexes were produced or obtained commercially. Assays were performed using 96-well plates and appropriate assay buffers (typically 25 mM β-glycerophosphate, 20 mM MOPS, 5 mM EGTA, 1 mM DTT, 1 mM […], pH 7.4), into which were added 2-4 μg of active enzyme with appropriate substrates. The reactions were initiated by addition of Mg/ATP mix (15 mM MgCl2+100 μM ATP with 30-50 kBq per well of [γ-^32P]-ATP) and mixtures incubated as required at 30° C. Reactions were stopped on ice, followed by filtration through p81 filterplates or GF/C filterplates (Whatman Polyfiltronics, Kent, UK). After washing 3 times with 75 mM aq orthophosphoric acid, plates were dried, scintillant added and incorporated radioactivity measured in a scintillation counter (TopCount, Packard Instruments, Pangbourne, Berks, UK). Compounds for kinase assay were made up as 10 mM stocks in DMSO and diluted into 10% DMSO in assay buffer. Data was analysed using curve-fitting software (GraphPad Prism version 3.00 for Windows, GraphPad Software, San Diego Calif. USA) to determine IC50 values (concentration of test compound which inhibits kinase activity by 50%).

CDK7/cyclin H = CDK7/cyclin H (Homo sapiens, UniProt P50613); experiment: CDK 7 assay; type: biochemical
CDK7/cyclin H, sequence (P50613 whole entry): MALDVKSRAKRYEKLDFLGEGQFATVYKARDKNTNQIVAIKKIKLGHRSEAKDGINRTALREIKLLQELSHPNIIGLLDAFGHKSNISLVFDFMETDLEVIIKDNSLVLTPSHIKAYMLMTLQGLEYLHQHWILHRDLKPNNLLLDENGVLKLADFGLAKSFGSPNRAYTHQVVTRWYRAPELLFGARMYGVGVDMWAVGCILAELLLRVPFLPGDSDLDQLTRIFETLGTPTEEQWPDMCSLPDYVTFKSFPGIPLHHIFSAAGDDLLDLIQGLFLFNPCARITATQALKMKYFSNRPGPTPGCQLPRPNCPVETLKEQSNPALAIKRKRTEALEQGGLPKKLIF
CDK7/cyclin H, sequence (P51946 whole entry partner): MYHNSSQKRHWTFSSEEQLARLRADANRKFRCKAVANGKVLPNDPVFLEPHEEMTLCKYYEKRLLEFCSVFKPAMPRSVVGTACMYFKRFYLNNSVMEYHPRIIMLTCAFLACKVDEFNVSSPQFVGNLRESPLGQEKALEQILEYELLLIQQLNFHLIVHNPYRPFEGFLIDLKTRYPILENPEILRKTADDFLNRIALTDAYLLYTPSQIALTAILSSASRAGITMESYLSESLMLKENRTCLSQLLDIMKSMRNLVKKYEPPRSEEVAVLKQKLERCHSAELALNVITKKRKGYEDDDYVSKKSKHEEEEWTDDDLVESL
Protocol: (§1) CTD peptide substrate (biotinyl-Ahx-(Tyr-Ser-Pro-Thr-Ser-Pro-Ser)4-NH2; 1-2 mg/mL) and recombinant human CDK7/cyclin H, CDK9/cyclin TI, or CDK9/cyclin K (0.5-2 μg) were incubated for 45 min at 30° C. in the presence of varying amounts of test compound in 20 mM MOPS pH 7.2, 25 mM β-glycerophosphate, 5 mM EGTA, 1 mM DTT, 1 mM sodium vanadate, 15 mM MgCl2, and 100 μM ATP (containing a trace amount of ^32PγATP) in a total volume of 25 μL in a 96-well microtiter plate. The reaction was stopped by placing the plate on ice for 2 min. Avidin (50 μg) was added to each well, and the plate was incubated at room temp for 30 min. The samples were transferred to a 96-well P81 filter plate, and washed (4×200 μL per well) with 75 mM phosphoric acid. Microscint 40 scintillation liquid (50 μL) was added to each well, and the amount of ^32P incorporation for each sample was measured using a Packard Topcount microplate scintillation counter.

CDK9/cyclin T1 = CDK9/cyclin T1 (Homo sapiens, UniProt P50750); experiment: CDK 9 assay; type: biochemical
CDK9/cyclin T1, sequence (P50750 whole entry): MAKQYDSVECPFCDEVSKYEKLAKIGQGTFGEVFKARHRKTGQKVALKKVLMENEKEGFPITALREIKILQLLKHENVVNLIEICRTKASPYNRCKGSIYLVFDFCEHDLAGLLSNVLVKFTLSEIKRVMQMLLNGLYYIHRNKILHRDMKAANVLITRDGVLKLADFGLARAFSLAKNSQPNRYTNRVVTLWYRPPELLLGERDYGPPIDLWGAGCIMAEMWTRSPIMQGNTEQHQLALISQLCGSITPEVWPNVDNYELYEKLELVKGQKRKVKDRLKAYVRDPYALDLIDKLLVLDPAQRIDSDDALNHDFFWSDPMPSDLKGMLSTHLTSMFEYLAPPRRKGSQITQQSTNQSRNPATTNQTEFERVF
CDK9/cyclin T1, sequence (O60563 whole entry partner): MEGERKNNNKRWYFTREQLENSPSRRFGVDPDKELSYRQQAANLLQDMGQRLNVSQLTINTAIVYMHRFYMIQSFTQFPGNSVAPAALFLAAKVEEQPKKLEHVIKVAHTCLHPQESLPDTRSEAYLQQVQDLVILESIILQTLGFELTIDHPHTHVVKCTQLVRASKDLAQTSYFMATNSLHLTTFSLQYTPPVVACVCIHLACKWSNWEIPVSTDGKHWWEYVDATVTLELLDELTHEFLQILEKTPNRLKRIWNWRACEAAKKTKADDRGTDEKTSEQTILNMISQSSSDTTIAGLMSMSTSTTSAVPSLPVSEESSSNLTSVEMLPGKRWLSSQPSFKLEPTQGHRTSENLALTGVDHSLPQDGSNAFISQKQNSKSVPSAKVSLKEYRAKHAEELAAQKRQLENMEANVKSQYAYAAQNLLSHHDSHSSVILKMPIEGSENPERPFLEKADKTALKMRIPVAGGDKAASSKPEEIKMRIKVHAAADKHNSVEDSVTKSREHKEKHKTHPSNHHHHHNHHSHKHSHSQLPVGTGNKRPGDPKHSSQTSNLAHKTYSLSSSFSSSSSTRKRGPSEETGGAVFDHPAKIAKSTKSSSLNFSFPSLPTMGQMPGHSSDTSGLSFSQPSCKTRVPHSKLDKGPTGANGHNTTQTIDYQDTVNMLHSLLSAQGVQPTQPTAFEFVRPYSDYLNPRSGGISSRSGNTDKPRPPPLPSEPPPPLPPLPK
Protocol: as §1

aurora-B = target: T1, aurora-B (Homo sapiens, UniProt Q96GD4); experiment: Aurora-B (human) kinase assay; type: biochemical; conditions: Table 3; read-out: Kinase inhibition Aurora B
T1 construct: purchased Upstate, Dundee, UK
T1 sequence (Q96GD4 whole entry): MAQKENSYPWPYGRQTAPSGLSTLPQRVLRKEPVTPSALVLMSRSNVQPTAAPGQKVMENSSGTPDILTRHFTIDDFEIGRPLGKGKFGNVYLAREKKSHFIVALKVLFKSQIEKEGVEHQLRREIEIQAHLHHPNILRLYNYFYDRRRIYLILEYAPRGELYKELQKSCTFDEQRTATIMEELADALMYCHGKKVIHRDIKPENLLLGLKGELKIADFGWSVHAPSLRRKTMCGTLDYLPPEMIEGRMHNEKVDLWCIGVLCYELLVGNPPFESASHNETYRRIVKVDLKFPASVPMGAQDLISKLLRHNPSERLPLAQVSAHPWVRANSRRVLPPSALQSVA
Protocol: This was achieved by measurement of incorporation of radioactive phosphate from ATP into Kemptide substrate (LRRASLG), upon phosphorylation by commercially obtained aurora-B (human, Upstate, Dundee, UK). Assays were performed using 96-well plates and appropriate assay buffers (20 mM Tris, 25 mM β-glycerophosphate, 5 mM EGTA, 1 mM DTT, 1 mM sodium vanadate, pH 7.5), into which were added 75 ng of pre-activated enzyme with 500 μM substrate (Kemptide). The reactions were initiated by addition of MgATP mix (15 mM MgCl2+100 μM ATP with 15-25 kBq per well of [γ-^32P]-ATP) and mixtures incubated for 60 min at 30° C. Reactions were stopped by addition of an equal volume of 75 mM aq orthophosphoric acid, followed by filtration through p81 filterplates (Whatman Polyfiltronics, Kent, UK). After washing 4 times with 75 mM aq orthophosphoric acid, plates were dried, scintillant added and incorporated radioactivity measured in a scintillation counter (TopCount, Packard Instruments, Pangbourne, Berks, UK). Compounds for kinase assay were made up as 10 mM stocks in DMSO and diluted into 10% DMSO in assay buffer. Data was analysed using curve-fitting software (XLfit version 4.0.2, IDBS, Guildford, Surrey, UK) to determine IC50 values (concentration of test compound which inhibits kinase activity by 50%).
Aurora-B (human, Upstate, Dundee, UK) was pre-activated immediately prior to kinase assay in appropriate buffers (20 mM Tris, 25 mM β-glycerophosphate, 5 mM EGTA, 1 mM DTT, 1 mM sodium vanadate, pH 7.5) by incubating 15 μg of enzyme with 4 μg INCENP (Upstate, Dundee, UK) in the presence of MgATP mix (15 mM MgCl2+100 μM ATP) for 15 min at 30° C.

Mia-PaCa-2 = experiment: MTT cytotoxicity assay, Mia-PaCa-2; type: cell-based; conditions: Homo sapiens, after incubation
Protocol: (§2) The compounds of the invention were subjected to a standard cellular proliferation assay using human tumour cell lines obtained from the ATCC (American Type Culture Collection, 10801 University Boulevard, Manessas, Va. 20110-2209, USA). […] C.; Thomas, D. G.; Darling, J. L. Anti Cancer Drugs 1996, 7, 331-8; Loveland, B. E.; Johns, T. G.; Mackay, 1. R.; Vaillant, F.; Wang, Z. X.; Hertzog, P. J. Biochemistry International 1992, 27, 501-10). In short: cells were seeded into 96-well plates according to doubling time and incubated overnight at 37° C. […] MTT was made up as a stock of 5 mg/mL in cell media and filter-sterilised. Media was removed from cells followed by a wash with 200 μL PBS. MTT solution was then added at 20 μL per well and incubated in the dark at 37° C. for 4 h MTT solution was removed and cells again washed with 200 μL PBS. MTT dye was solubilised with 200 μL per well of DMSO with agitation. Absorbance was read at 540 nm and data analysed using curve-fitting software (GraphPad Prism version 3.00 for Windows, GrapbPad Software, San Diego Calif. USA) to determine IC50 values (concentration of test compound which inhibits cell growth by 50%).

A2780 = experiment: MTT cytotoxicity assay, A2780; type: cell-based; conditions: Homo sapiens, after incubation
Protocol: as §2

[1] = Table 2, read-out: Kinase inhibition IC50 CDK4D1
[2] = Table 2, read-out: Kinase inhibition IC50 CDK7H
[3] = Table 2, read-out: Kinase inhibition IC50 CDK9T1
[4] = Table 3, read-out: Kinase inhibition CDK9T1
[5] = Table 3, read-out: Kinase inhibition CDK4D1
[6] = Table 3, read-out: Kinase inhibition CDK7H

CDK4/cyclin D1, sequence (P11802 whole entry, species assumed): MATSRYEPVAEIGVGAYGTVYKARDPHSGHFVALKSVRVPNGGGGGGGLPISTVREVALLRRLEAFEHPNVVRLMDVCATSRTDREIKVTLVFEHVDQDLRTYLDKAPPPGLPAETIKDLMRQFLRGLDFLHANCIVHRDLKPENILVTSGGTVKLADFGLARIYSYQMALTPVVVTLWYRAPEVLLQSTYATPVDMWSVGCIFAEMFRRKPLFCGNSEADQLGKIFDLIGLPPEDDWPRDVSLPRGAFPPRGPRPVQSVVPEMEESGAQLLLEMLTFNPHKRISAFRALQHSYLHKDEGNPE
CDK4/cyclin D1, sequence (P24385 whole entry partner, species assumed): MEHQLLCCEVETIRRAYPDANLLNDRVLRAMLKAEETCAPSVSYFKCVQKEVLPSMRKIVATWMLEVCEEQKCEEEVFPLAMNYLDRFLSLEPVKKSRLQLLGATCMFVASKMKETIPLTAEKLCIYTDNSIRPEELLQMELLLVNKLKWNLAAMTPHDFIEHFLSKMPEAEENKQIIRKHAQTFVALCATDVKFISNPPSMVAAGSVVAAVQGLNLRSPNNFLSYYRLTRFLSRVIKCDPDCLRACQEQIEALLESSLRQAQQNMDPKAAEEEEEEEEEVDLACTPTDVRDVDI

| IC50 (CDK4/cyclin D1; [1]) [nM] | IC50 (CDK7/cyclin H; [2]) [nM] | IC50 (CDK9/cyclin T1; [3]) [nM] | IC50 (CDK9/cyclin T1; [4]) [nM] | IC50 (CDK4/cyclin D1; [5]) [nM] | IC50 (CDK7/cyclin H; [6]) [nM] | IC50 (aurora-B) [nM] | Compound | IC50 (Mia-PaCa-2) [nM] | IC50 (A2780) [nM] |
| --- | --- | --- | --- | --- | --- | --- | --- | --- | --- |
| > 100000 | > 100000 | 6100 | 6080 |  |  |  | O=[N+]([O-])c1cccc(Nc2nccc(-c3c[nH]c4ccccc34)n2)c1 [Compound 2, [4-(1H-Indol-3-yl)-pyrimidin-2-yl]-(3-nitro-phenyl)-amine] |  |  |
| > 100000 | > 100000 | > 100000 |  |  |  |  | Fc1ccc(Nc2nccc(-c3c[nH]c4ccccc34)n2)cc1 [Compound 3, (4-Fluoro-phenyl)-[4-(1H-indol-3-yl)-pyrimidin-2-yl]-amine] |  |  |
| 1000 | 5400 | 2800 | 2820 | 1000 | 5440 |  | COc1ccc(Nc2nccc(-c3c[nH]c4ccccc34)n2)cn1 [Compound 4, [4-(1H-Indol-3-yl)-pyrimidin-2-yl]-(6-methoxy-pyridin-3-yl)-amine] |  |  |
|  | > 10000 | > 10000 |  |  |  | 260 | c1ccc2c(-c3ccnc(Nc4ccc(N5CCOCC5)cc4)n3)c[nH]c2c1 [Compound 5, [4-(1H-Indol-3-yl)-pyrimidin-2-yl]-(4-morpholin-4-yl-phenyl)-amine] | 2400 | 1030 |
|  |  |  | 2080 | 4390 |  | 125 | CC(=O)N1CCN(c2ccc(Nc3nccc(-c4c[nH]c5ccccc45)n3)cc2)CC1 [Compound 6, 4-(1H-indol-3-yl)-N-(4-acetylpiperazin-1-ylphenyl)pyrimidin-2-amine] | 785 | 789 |
|  |  |  | 520 | 426 | 2530 | 170 | c1ccc2c(-c3ccnc(Nc4ccc(N5CCNCC5)cc4)n3)c[nH]c2c1 [Compound 7, 4-(1H-indol-3-yl)-N-(4-piperazin-1-ylphenyl)pyrimidin-2-amine] | 166 | 86 |
|  |  |  | 3030 | 5460 | 6670 | 158 | CC1CN(c2ccc(Nc3nccc(-c4c[nH]c5ccccc45)n3)cc2)CC(C)O1 (centres unmarked) [Compound 9] | 6230 | 5450 |
|  |  |  | 1590 | 5780 | 5230 | 729 | CN(C)c1ccc(Nc2nccc(-c3c[nH]c4ccccc34)n2)cc1 [Compound 10, N′-[4-(1H-indol-3-yl)pyrimidin-2-yl]-N,N-dimethylbenzene-1,4-diamine] | 5480 | 485 |
|  |  |  | 1260 |  |  | 66.4 | COc1cc(Nc2nccc(-c3c[nH]c4ccccc34)n2)cc(OC)c1OC [Compound 12, 4-(1H-indol-3-yl)-N-(3,4,5-trimethoxyphenyl)pyrimidin-2-amine] | 77 | 43 |
|  |  |  | 4240 |  |  | 228 | COc1cc(Nc2nccc(-c3c[nH]c4ccccc34)n2)ccc1N1CCOCC1 [Compound 13, 4-(1H-indol-3-yl)-N-(3-methoxyl-4-morpholin-4-ylphenyl)pyrimidin-2-amine] | 6730 | 2480 |
|  |  |  | 4440 |  | 6660 | 24.6 | CC(=O)N1CCN(c2ccc(Nc3nccc(-c4c(C)[nH]c5ccccc45)n3)cc2)CC1 [Compound 22] | 778 | 299 |
|  |  |  | 1540 |  | 3470 | 76.1 | CC(=O)N1CCN(c2ccc(Nc3nccc(-c4c[nH]c5c(C)cccc45)n3)cc2)CC1 [Compound 23] | 789 | 448 |
